# From patent US20160137639A1, “TRIAZOLE-ISOXAZOLE COMPOUND AND MEDICAL USE THEREOF” (JAPAN TOBACCO INC., priority 2012, published 2016)
# Like-named read-outs stand apart in the source and are kept apart here.
# Key:
# human RORγ = molecular target: T1, human RORγ (Homo sapiens, UniProt P51449); experiment: Luciferase reporter gene assay of inhibitory effect against RORγ transcriptional activity (GAL4-hRORγ plasmid in CHO cells); type: cell-based
# T1 construct: human, NM_005060.3 and from Ser253 to Lys518; expressed in transfected cells; host or cells: CHO cells (transient co-transfection with pG5-Luc reporter)
# T1 sequence (P51449 253-518): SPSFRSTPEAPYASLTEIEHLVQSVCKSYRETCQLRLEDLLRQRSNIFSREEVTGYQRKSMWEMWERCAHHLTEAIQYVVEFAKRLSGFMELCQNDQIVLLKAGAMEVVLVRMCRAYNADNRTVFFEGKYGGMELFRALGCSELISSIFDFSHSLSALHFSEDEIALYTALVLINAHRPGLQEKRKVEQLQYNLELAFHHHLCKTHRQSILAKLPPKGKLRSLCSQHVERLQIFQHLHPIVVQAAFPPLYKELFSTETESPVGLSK
# mouse RORγ = molecular target: T2, mouse RORγ (Mus musculus, UniProt P51450); experiment: Luciferase reporter gene assay of inhibitory effect against RORγ transcriptional activity (GAL4-mRORγ plasmid in CHO cells); type: cell-based
# T2 construct: mouse, NM_011281.2 and from Ile251 to Lys516; expressed in transfected cells; host or cells: CHO cells (transient co-transfection with pG5-Luc reporter)
# T2 sequence (P51450 251-516): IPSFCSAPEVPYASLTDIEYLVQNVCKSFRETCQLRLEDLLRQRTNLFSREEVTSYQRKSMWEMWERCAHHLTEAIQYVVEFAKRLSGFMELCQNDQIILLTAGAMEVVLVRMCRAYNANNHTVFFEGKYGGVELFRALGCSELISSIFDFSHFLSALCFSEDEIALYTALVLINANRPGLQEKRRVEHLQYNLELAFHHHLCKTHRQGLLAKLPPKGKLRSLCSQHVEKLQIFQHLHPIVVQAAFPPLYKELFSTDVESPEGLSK
# Method in brief: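 CHO cells transiently co-transfected with GAL4-mouse RORγ LBD (Ile251–Lys516) and GAL4-dependent luciferase reporter; eight compound concentrations, 0.1% DMSO, 2 days at 37 °C. Luminescence as %-of-vehicle control; EC50 by curve fit, cytotoxic concentrations excluded.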
SMILES,EC50 (human RORγ; read-out: LUC EC50 hRORg) [µM],EC50 (mouse RORγ; read-out: LUC EC50 mRORg) [µM],EC50 (human RORγ; read-out: LUC EC50 (μM) hRORg) [µM],EC50 (mouse RORγ; read-out: LUC EC50 (μM) mRORg) [µM]
Cc1ccc(NC(=O)C[C@H](CCC(=O)NS(C)(=O)=O)c2noc([C@H]3C[C@@H](CC(C)C)C3)c2C2CC2)c(C)c1 [Example F-636],< 3,< 3,,
C=CCC(CC(=O)Nc1cccc(Cl)c1C)c1nnc(CCC(C)C)n1C1CC1 (racemic) [Example F-193],,,< 3,< 3
"Cc1ccc(NC(=O)C(C)C(CCO)c2nnc([C@H]3C[C@@H](CC(C)C)C3)n2C2CC2)c(C)c1 (single isomer, unassigned) [Example F-492]",,,> 3,> 3
CC(C)CCc1nnc(CCC(=O)NCc2cccc3[nH]ncc23)n1C1CC1 [Example F-128],,,> 3,> 3
Cc1ccc(NC(=O)CC(Cc2ncco2)c2nnc([C@H]3C[C@@H](CC(C)C)C3)n2C2CC2)c(C)c1 (mixture of isomers) [Example F-454],,,< 3,< 3
Cc1ccc(NC(=O)CCc2noc(C(O)c3cc(C(C)(C)C)no3)c2C2CC2)c(Cl)c1 (racemic) [Example F-744],> 3,< 3,,
Cc1ccc(NC(=O)C[C@@H](CCO)c2nnc(CCC3CCCCC3)n2C2CC2)c(C)c1 [Example F-384],,,> 3,> 3
Cc1ccc(C2CC2)cc1NC(=O)CCc1nnc(CCC(C)C)n1C1CC1 [Example F-152],,,> 3,> 3
Cc1ccc(NC(=O)C[C@H](CC(=O)NC(C)(C)C)c2noc([C@H]3C[C@@H](CC(C)C)C3)c2C2CC2)c(C)c1 [Example F-639],< 3,< 3,,
Cc1ccc(NC(=O)[C@@H]2CC(F)(F)C[C@H]2c2nnc([C@H]3C[C@@H](CC(C)C)C3)n2C2CC2)c(C)c1 [Example F-572],< 3,< 3,,
CC(=O)N1C[C@H](C(=O)Nc2ccc(C)cc2C)[C@@H](c2nnc(-c3ccc(CC(C)C)cc3)n2C2CC2)C1 [Example F-406],,,< 3,< 3
CC(C)CCc1nnc(CCC(=O)Nc2cnc3ccccn23)n1C1CC1 [Example F-134],,,> 3,> 3
CC(=O)N1C[C@@H](C(=O)Nc2ccc(C)cc2C)[C@H](c2nnc(-c3cc(CC(C)C)no3)n2C2CC2)C1 [Example F-507],> 3,> 3,,
CC(=O)N1C[C@H](C(=O)Nc2ccc(C)cc2C)[C@@H](c2nnc(C3CN(C(=O)N(C)C(C)C)C3)n2C2CC2)C1 (racemic) [Example F-419],,,> 3,> 3
CC(=O)N1C[C@H](C(=O)Nc2ccc(C)cc2C)[C@@H](c2nnc([C@H]3C[C@@H](OC(C)C)C3)n2C2CC2)C1 [Example F-336],,,> 3,> 3
CCCOc1ccc(-c2nnc(CCC(=O)Nc3ccc(C)cc3C)n2C2CC2)cc1 [Example F-463],,,> 3,< 3
Cc1ccc(NC(=O)C[C@H](C[C@H](O)CO)c2nnc(CCCC(C)C)n2C2CC2)c(C)c1 [Example F-343],,,< 3,< 3
Cc1ccc(NC(=O)C[C@H](CCO)c2nnc([C@H]3C[C@@H](CC(F)(F)F)C3)n2C2CC2)c(C)c1 [Example F-587],< 3,< 3,,
Cc1ccc(NC(=O)C[C@@H](CC(C)(C)O)c2nnc([C@H]3C[C@@H](CC(C)C)C3)n2C2CC2)c(C)c1 [Example F-598],> 3,> 3,,
C=CCC(CC(=O)Nc1ccc(C)cc1C)c1nnc(C(F)(F)CCC(C)(C)C)n1C1CC1 (racemic) [Example F-376],,,< 3,< 3
CC(=O)N1C[C@H](C(=O)Nc2ccc(F)cc2C)[C@@H](c2nnc(CCCC(C)(C)C)n2C2CC2)C1 (racemic) [Example F-333],,,< 3,< 3
Cc1c(Cl)cccc1NC(=O)CC(CCCO)c1nnc(CCCC(C)C)n1C1CC1 (racemic) [Example F-212],,,< 3,< 3
Cc1ccc(NC(=O)CC(c2nnc([C@H]3C[C@@H](CC(C)C)C3)n2C2CC2)C(C)O)c(C)c1 (mixture of isomers) [Example F-529],< 3,< 3,,
Cc1ccc(NCc2nnc(CCC(=O)Nc3cccc(Cl)c3C)n2C2CC2)cc1 [Example F-180],,,> 3,< 3
Cc1c(Cl)cccc1NC(=O)CCc1nnc(CCC2CCCN(C(=O)OC(C)(C)C)C2)n1C1CC1 (racemic) [Example F-186],,,< 3,< 3
